According to ChEMBL document CHEMBL1177675, “Synthesis and antiproliferative evaluation of certain iminonaphtho[2,3-b]furan derivatives” (Bioorg Med Chem, 2010):

Assays:
MCF7 [1] = experiment: Cytotoxicity against human MCF7 cells at 4 ug/ml after 48 hrs by sulforhodamine B assay relative to control; assay type: functional
NCI-H460 [2] = experiment: Cytotoxicity against human NCI-H460 cells at 4 ug/ml after 48 hrs by sulforhodamine B assay relative to control; assay type: functional
SF-268 [3] = experiment: Cytotoxicity against human SF268 cells at 4 ug/ml after 48 hrs by sulforhodamine B assay relative to control; assay type: functional
MCF7 [4] = experiment: Cytotoxicity against human MCF7 cells after 72 hrs by XTT assay; assay type: functional; details: MCF7, 72 h
NCI-H460 [5] = experiment: Cytotoxicity against human NCI-H460 cells after 72 hrs by XTT assay; assay type: functional; details: NCI-H460, 72 h
SF-268 [6] = experiment: Cytotoxicity against human SF268 cells after 72 hrs by XTT assay; assay type: functional; details: SF-268, 72 h
[7] = Cytotoxicity against human Detroit 551 cells after 72 hrs by XTT assay; assay type: cell-based
MCF7 [8] = experiment: Selectivity index, ratio of GI50 for human Detroit 551 cells to GI50 for human MCF7 cells; assay type: functional
NCI-H460 [9] = experiment: Selectivity index, ratio of GI50 for human Detroit 551 cells to GI50 for human NCI-H460 cells; assay type: functional
SF-268 [10] = experiment: Selectivity index, ratio of GI50 for human Detroit 551 cells to GI50 for human SF268 cells; assay type: functional
K562 [11] = experiment: Cytotoxicity against human K562 cells after 72 hrs by XTT assay; assay type: functional; details: K562, 72 h
K562 [12] = experiment: Selectivity index, ratio of GI50 for human Detroit 551 cells to GI50 for human K562 cells; assay type: functional
K562 [13] = experiment: Cell cycle arrest in human K562 cells assessed as accumulation at G0/G1 phase at 1 uM after 24 hrs using propidium iodide staining by flow cytometry; assay type: functional
K562 [14] = experiment: Cell cycle arrest in human K562 cells assessed as accumulation at S phase at 1 uM after 24 hrs using propidium iodide staining by flow cytometry; assay type: functional
K562 [15] = experiment: Cell cycle arrest in human K562 cells assessed as accumulation at G2/M phase at 1 uM after 24 hrs using propidium iodide staining by flow cytometry; assay type: functional
K562 [16] = experiment: Cell cycle arrest in human K562 cells assessed as accumulation at Sub-G1 phase at 1 uM after 24 hrs using propidium iodide staining by flow cytometry; assay type: functional

| SMILES | Activity (MCF7 [1]) [%] | Activity (NCI-H460 [2]) [%] | Activity (SF-268 [3]) [%] | GI50 (MCF7 [4]) [µM] | GI50 (NCI-H460 [5]) [µM] | GI50 (SF-268 [6]) [µM] | GI50 at 72 h [7] [µM] | RatioGI50 (MCF7 [8]) | RatioGI50 (NCI-H460 [9]) | RatioGI50 (SF-268 [10]) | GI50 (K562 [11]) [µM] | RatioGI50 (K562 [12]) | Activity (K562 [13]) [%] | Activity (K562 [14]) [%] | Activity (K562 [15]) [%] | Activity (K562 [16]) [%] |
| --- | --- | --- | --- | --- | --- | --- | --- | --- | --- | --- | --- | --- | --- | --- | --- | --- |
| CC[C@@]1(O)C(=O)OCc2c1cc1n(c2=O)Cc2cc3ccccc3nc2-1 [CAMPTOTHECIN] | 33 | 1 | 25 | 0.57 | 0.03 | 0.19 | 0.99 | 1.74 | 33 | 5.21 | 0.06 | 16.5 |  |  |  |  |
| Clc1ccc(/N=C2/c3ccccc3/C(=N/c3ccc(Cl)cc3)c3occc32)cc1 | 109 | 112 | 116 |  |  |  |  |  |  |  |  |  |  |  |  |  |
| O=C1c2ccccc2C(=O)c2occc21 | 1 | 2 | 16 | 5.92 | 5.07 | 5.65 | 14.8 | 2.5 | 2.92 | 2.62 | 0.65 | 22.82 | 27.4 | 29.4 | 43.2 | 8.24 |
| CCN(CC)CCOC(=O)c1ccc(/N=C2/c3ccccc3/C(=N/c3ccc(C(=O)OCCN(CC)CC)cc3)c3occc32)cc1 | -1 | -1 | 18 | 2.6 | 2.23 | 4.1 | 1.97 | 0.76 | 0.88 | 0.49 | 0.63 | 3.13 | 40.4 | 7.1 | 52.5 | 5.56 |
| c1ccc(/N=C2/c3ccccc3/C(=N/c3ccccc3)c3occc32)cc1 | 111 | 111 | 102 |  |  |  |  |  |  |  |  |  |  |  |  |  |
| O=C1c2ccccc2/C(=N/OCCN2CCCC2)c2ccoc21 | 72 | 51 | 58 |  |  |  |  |  |  |  |  |  |  |  |  |  |
| O=C1c2ccccc2/C(=N/O)c2ccoc21 | 10 | 5 | 16 | 12.3 | 7.71 | 8.85 | > 100 | >8.13 | >12.97 | >11.3 | 0.82 | >121.95 | 37.7 | 4.4 | 58 | 4.41 |
| COc1cccc2c1C(=O)c1c(O)c3c(c(O)c1C2=O)C[C@@](O)(C(C)=O)C[C@@H]3O[C@H]1C[C@H](N)[C@H](O)[C@H](C)O1 [DAUNORUBICIN] | 30 | 15 | 16 | 0.86 | 0.38 | 0.6 | 1.77 | 2.06 | 4.66 | 2.95 | 0.0074 | 239 |  |  |  |  |
| Fc1ccc(/N=C2/c3ccccc3/C(=N/c3ccc(F)cc3)c3occc32)cc1 | 102 | 103 | 118 |  |  |  |  |  |  |  |  |  |  |  |  |  |
| Br.NCCCO/N=C1/c2ccccc2C(=O)c2occc21 | 10 | 44 | 15 | 12.6 | 7.19 | 9.02 | 40.9 | 3.24 | 5.69 | 4.53 | 6.62 | 6.18 | 33.5 | 3.2 | 63.3 | 4.19 |
| O=[N+]([O-])c1ccc(/N=C2/c3ccccc3/C(=N/c3ccc([N+](=O)[O-])cc3)c3occc32)cc1 | 111 | 117 | 118 |  |  |  |  |  |  |  |  |  |  |  |  |  |
| FC(F)(F)c1ccc(/N=C2/c3ccccc3/C(=N/c3ccc(C(F)(F)F)cc3)c3occc32)cc1 | 111 | 115 | 105 |  |  |  |  |  |  |  |  |  |  |  |  |  |
| CC(=O)O/N=C1/c2ccccc2C(=O)c2occc21 | 10 | 5 | 18 | 13.3 | 7.46 | 7.9 | > 100 | >7.51 | >13.4 | >12.66 | 8.59 | >11.64 | 29 | 30.2 | 41.9 | 5.82 |
| O=C1c2ccccc2/C(=N/OCCN2CCCCC2)c2ccoc21 | 87 | 79 | 64 |  |  |  |  |  |  |  |  |  |  |  |  |  |
| COc1ccc(/N=C2/c3ccccc3/C(=N/c3ccc(OC)cc3)c3occc32)cc1 | 86 | 90 | 85 |  |  |  |  |  |  |  |  |  |  |  |  |  |
| O=C1C(=O)c2ccoc2-c2ccccc21 | 0 | -1 | 0 | 6.42 | 6.38 | 6.38 | 5.77 | 0.9 | 0.9 | 0.9 | 0.64 | 9.02 | 36.1 | 51.2 | 12.7 | 3.75 |
| CN(C)CCO/N=C1/c2ccccc2C(=O)c2occc21 | 78 | 51 | 53 |  |  |  |  |  |  |  |  |  |  |  |  |  |
| O=C1c2ccccc2/C(=N/OCc2ccccc2)c2ccoc21 | 93 | 85 | 103 |  |  |  |  |  |  |  |  |  |  |  |  |  |
| O=C1c2ccccc2/C(=N/c2ccc(F)cc2)c2ccoc21 | 75 | 67 | 77 |  |  |  |  |  |  |  |  |  |  |  |  |  |
| O=C1c2ccccc2/C(=N/OCCN2CCOCC2)c2ccoc21 | 97 | 68 | 90 |  |  |  |  |  |  |  |  |  |  |  |  |  |
| Cc1ccc(/N=C2/c3ccccc3/C(=N/c3ccc(C)cc3)c3occc32)cc1 | 104 | 104 | 118 |  |  |  |  |  |  |  |  |  |  |  |  |  |
| O=C1c2ccccc2/C(=N/c2ccccc2)c2ccoc21 | 74 | 65 | 74 |  |  |  |  |  |  |  |  |  |  |  |  |  |
| CN(C)CCCO/N=C1/c2ccccc2C(=O)c2occc21 | 74 | 51 | 54 |  |  |  |  |  |  |  |  |  |  |  |  |  |
